Experimental data published in patent US12382954B2, “Pinocembrin dihydrochalcone and compositions thereof and their use as pesticides” (METABOLIC INSIGHTS LTD., priority 2019, dated 2025).

Key:
[1] = system: Pectobacterium carotovorum; assay type: cell-based; settings: 50 ppm
Fusarium oxysporum [2] = assay type: cell-based; settings: 50 ppm
Pythium aphanidermatum [3] = assay type: cell-based; settings: 50 ppm
Phytophthora infestans [4] = assay type: in vivo; settings: tomato detached leaf experiment, 500-1000 ppm, spray on leaves, 6 days after infection
Spodoptera litoralis = assay: In-vitro screening matrix, Spodoptera litoralis; settings: 50 ppm
Xanthomonas campestris = assay type: cell-based; settings: 50 ppm
Rhizoctonia solani = assay type: cell-based; settings: 50 ppm
Phytophthora infestans [5] = assay type: cell-based; settings: 50 ppm, tomato leaf discs, % of maximal value (grade x repeats/12)
Botrytis cinerea = assay type: cell-based; settings: 50 ppm
Fusarium oxysporum [6] = assay: In planta validation, cucumber seedlings infected with Fusarium oxysporum; assay type: in vivo; settings: 3 weeks after infection, 3 independent experiments
Sclerotinia sclerotiorum = assay type: cell-based; settings: 50 ppm
Pythium aphanidermatum [7] = assay: In planta validation, cucumber seedlings infected with Pythium aphanidermatum (soil drench); assay type: in vivo; settings: 4 days after infection, 150 ppm-500 ppm, 2 independent experiments
[8] = system: Pseudoperonospora cubensis; assay type: cell-based; settings: 50 ppm
Puccinia triticina = assay type: cell-based; settings: 50 ppm
Mizus Persicae = assay: In-vitro screening matrix, Mizus Persicae; settings: 50 ppm
Puccinia sorghi = assay type: cell-based; settings: 50 ppm
Pseudomonas syringae = assay type: cell-based; settings: 50 ppm

Structure (SMILES): O=C(CCc1ccccc1)c1c(O)cc(O)cc1O [Pinocembrin dihydrochalcone, 3-phenyl-1-(2,4,6-trihydroxyphenyl)propan-1-one]
- Relative Activity value (%) [1]: 12%
- Relative Activity value (%) (Fusarium oxysporum [2]): 9%
- Relative Activity value (%) (Pythium aphanidermatum [3]): 100%
- control of Phytophthora infestans (Phytophthora infestans [4]): up to 100%
- Relative Activity value (%) (Spodoptera litoralis): 0%
- Relative Activity value (%) (Xanthomonas campestris): 50%
- Relative Activity value (%) (Rhizoctonia solani): 6%
- Relative Activity value (%) (Phytophthora infestans [5]): 100%
- Relative Activity value (%) (Botrytis cinerea): 0%
- range of efficacy in preventing and controlling the Fusarium diseases (Fusarium oxysporum [6]; 100 ppm and 200 ppm): 66-100%
- range of efficacy in preventing and controlling the Fusarium diseases (Fusarium oxysporum [6]; 300 ppm): 88-100%
- Relative Activity value (%) (Sclerotinia sclerotiorum): 6%
- range of efficacy in preventing and controlling the Pythium disease (Pythium aphanidermatum [7]): up to 100%
- Relative Activity value (%) [8]: 50%
- Relative Activity value (%) (Puccinia triticina): 19%
- Relative Activity value (%) (Mizus Persicae): 0%
- Relative Activity value (%) (Puccinia sorghi): 0%
- Relative Activity value (%) (Pseudomonas syringae): 6%
